Measured values reported in patent US6344351B2, “(R)-transaminase from arthrobacter” (Kaneka Corporation, priority 1995, dated 2002).
Like-named read-outs stand apart in the source and are kept apart here.

Columns and labels:
[1] = system: Arthrobacter species KNK168 strain; assay: Resolution of racemic 2-amino-1-methoxypropane by cells with aldehyde amino acceptors; type: cell-based; conditions: 150 mM aldehyde as amino acceptor, 200 mM racemic 2-amino-1-methoxypropane, 30° C., 20 hours
Method: The Arthrobacter species KNK168 strain was cultured in the same manner as in Example 13, and the cells were separated from 1 ml of the culture. The cells were suspended in 1 ml of a reaction mixture containing a 0.1 M Tris-hydrochloric acid buffer (pH 8.5), 50 mg of racemic 2-amino-1-methoxypropane, 37.5 mg of pyruvic acid, and 0.1% of sodium dodecyl sulfate. The components were reacted at 30° C. for 24 hours with stirring. As a result of the analysis after the reaction, 23.4 mg of 2-amino-1-methoxypropane remained, and its optical purity was 95% ee ((S)-form).
By carrying out the same reaction as in Example 14 using 200 mM racemic 2-amino-1-methoxypropane, and 150 mM n-butylaldehyde or propionaldehyde, the components were reacted at 30° C. for 20 hours. As a result of the analysis thereof, the (S)-form of 2-amino-1-methoxypropane was concentrated, and the ratio of the (S)-form was 76% in a case of using n-butylaldehyde, and 58% in a case of using propionaldehyde.

[2] = system: Arthrobacter species KNK168 strain; assay: Inducer added to culture medium; (R)-DMA formation by the separated cells; type: cell-based; conditions: cells reacted 30° C., 20 hours, 1% 1-(3,4-dimethoxyphenyl)-2-propanone, 1% (RS)-1-methylpropylamine
Method: When culturing the Arthrobacter species KNK168 strain by the method described in Example 1, (RS)-1-methylpropylamine, (RS)-1-methylbutylamine, (RS)-3-amino-2,2-dimethylbutane, (RS)-2-amino-1-butanol, or (RS)-1-phenylethylamine was added to the medium in place of (R)-1-(3,4-dimethoxyphenyl)-2-aminopropane ((R)-DMA). The cells were separated from the medium, and the reaction was carried out at 30° C. for 20 hours using the above cells in a reaction mixture containing 1% of 1-(3,4-dimethoxyphenyl)-2-propanone and 1% of (RS)-1-methylpropylamine.

[3] = system: Arthrobacter species KNK168 strain; assay: Amino donor test; (R)-DMA formation by cultured cells; type: cell-based
Method: The cultured cells were harvested by centrifugation, and the harvested cells were suspended in a reaction mixture (pH 8.5) containing 1% of 1-(3,4-dimethoxyphenyl)-2-propanone, […] of Triton X-100, and 1% of an amino donor shown in Table 2. The components were reacted at 35° C. for 20 hours.

[4] = system: (R)-form-specific transaminase of Arthrobacter sp. KNK168; assay: Influence of reaction inhibitors on purified transaminase of present invention; type: biochemical; conditions: for Transaminase of Present Invention (Relative Activity: %) with inhibitor: inhibitor 1 mM, without addition = 100
Excerpt: (§1) The differences with the ω-amino acid transaminase derived from Pseudomonas sp. F-1 (Agric. Biol. Chem., 42, 2363-2367 (1978), Agric. Biol. Chem., 43, 1043-1048 (1979), J. Biol. Chem., 258, 2260-2265 (1983)) which have been well studied among the ω-amino acid transaminases, and with the benzylamine transaminase of Okada et al. (Japanese Patent Laid-Open No. Hei 6-178685) are summarized and shown in Table 2. In a case of the transaminase action in the present invention, the data of the purified enzyme are used, and in cases of those by other two enzymes, the data of the purified enzymes which are disclosed in each of the literature publication and patent publication are used. Pyruvic acid is used as an amino acceptor in all cases.

[5] = system: benzylamine transaminase of Okada et al.; conditions: without addition = 100, cited from earlier work
[6] = molecular target: T1, ω-amino acid transaminase derived from Pseudomonas sp. F-1 (Pseudomonas putida, UniProt P28269); design: concentration or dose not given beside the values; conditions: purified enzyme, literature data; pyruvic acid as amino acceptor; cited from earlier work
T1 sequence (P28269 1-449): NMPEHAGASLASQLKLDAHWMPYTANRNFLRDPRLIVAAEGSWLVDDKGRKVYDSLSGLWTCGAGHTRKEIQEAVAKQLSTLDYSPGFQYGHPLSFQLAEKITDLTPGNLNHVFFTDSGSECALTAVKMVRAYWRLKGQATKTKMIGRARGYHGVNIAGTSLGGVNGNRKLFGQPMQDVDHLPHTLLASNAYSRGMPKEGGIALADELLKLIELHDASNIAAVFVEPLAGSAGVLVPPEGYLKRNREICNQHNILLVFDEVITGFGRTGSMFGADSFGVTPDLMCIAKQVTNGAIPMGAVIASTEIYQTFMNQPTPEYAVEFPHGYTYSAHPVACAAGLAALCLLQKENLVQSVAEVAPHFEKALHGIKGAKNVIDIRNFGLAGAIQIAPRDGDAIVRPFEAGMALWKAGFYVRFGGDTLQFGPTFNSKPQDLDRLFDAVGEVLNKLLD

[7] = system: benzylamine transaminase of Okada et al.; design: Transaminase of Okada et al. (Relative Activity: %), Substrate Specificity: concentration or dose not given beside the values; conditions: cited from earlier work; for Transaminase of Okada et al. (Relative Activity: %), Substrate Specificity: purified enzyme, patent publication data, pyruvic acid as amino acceptor
[8] = system: (R)-form-specific transaminase of Arthrobacter sp. KNK168; assay: Reactivity of purified transaminase of present invention to amino compounds, pyruvic acid as amino acceptor; type: biochemical; design: Transaminase of Present Invention (Relative Activity: %), Substrate Specificity: concentration or dose not given beside the values; conditions: for Transaminase of Present Invention (Relative Activity: %), Substrate Specificity: pyruvic acid as amino acceptor
Excerpt: as §1
Using the purified enzyme obtained in Example 9, reactivities to various amino compounds when using pyruvic acid as an amino acceptor were evaluated. 150 μl of a solution of the purified enzyme diluted ten-folds was added to 150 μl of a substrate solution (0.1 M potassium phosphate buffer (pH 8.3), 40 mM pyruvic acid, 0.1 mM pyridoxal phosphate, and 40 mM various amino compounds). The components were reacted at 30° C. for 1 hour. The reaction tube was transferred into boiling water to stop the reaction, and, thereafter, a part of the reaction mixture was diluted five-folds. Ten μl of 0.1 M boric acid buffer (pH 8.0) and 20 μl of an ethanol solution of 80 mM of 4-fluoro-7-nitro-2,1,3-benzoxadiazole (NBD-F) were added to 10 μl of the above-mentioned diluted reaction mixture. The components were reacted at 60° C. for 1 minute, and, thereafter, the reaction mixture was ice-cooled, and 460 μl of 5 mM HCl was added thereto. This reaction mixture was analyzed by high-performance liquid chromatography using fine pack C18-5 column and using a 0.1 M potassium phosphate buffer (pH 6.5) and CH3CN (90:10) as an eluent solution to detect formation of alanine-NBD using excitation wavelength of 470 nm and using detection wave of […]. The results thereof are shown in Table 8 in terms of relative activity in the case of using […] as a substrate.

[9] = molecular target: T1, ω-amino acid transaminase derived from Pseudomonas sp. F-1; conditions: inhibitor 1 mM; without addition = 100; cited from earlier work
[10] = system: transaminase (intracellular enzyme) of Arthrobacter sp. KNK168; assay: Activity of the transaminase (intracellular enzyme) against typical substrates of ω-aminotransferases; type: biochemical
[11] = system: transaminase derived from Arthrobacter; assay: Usability as amino group donor, transaminase of present invention; type: biochemical; conditions: +/− without printed key, or words
Excerpt: Further, the transaminase derived from Arthrobacter which can be used in the present invention is different from the above-mentioned enzyme derived from Brevibacterium in many other aspects.

SMILES: CCCC=O [n-butylaldehyde]
- ratio of the (S)-form of 2-amino-1-methoxypropane [1]: 76%

SMILES: CCC(N)CO (racemic) [(RS)-2-Amino-1-butanol]
- (R)-DMA Formed (%), inducer in culture medium [2]: 12.9%

SMILES: CC(N)c1ccccc1 (racemic) [(RS)-1-Phenylethylamine]
- (R)-DMA Formed (%), inducer in culture medium [2]: 8.0%
- function as amino donor [3]: most highly preferable

SMILES: O=S(=O)([O-])[O-].[Cu+2] [CuSO4]
- Transaminase of Present Invention (Relative Activity: %) with inhibitor [4]: 44%
- Transaminase of Okada et al. (Relative Activity: %) with inhibitor ([5]; inhibitor 0.5 mM): 5%

SMILES: NCCc1ccccc1 [β-Phenethylamine]
- ω-Amino Acid Transaminase (Relative Activity: %), Substrate Specificity [6]: 54%
- Transaminase of Okada et al. (Relative Activity: %), Substrate Specificity [7]: 9%
- Transaminase of Present Invention (Relative Activity: %), Substrate Specificity ([8]; purified enzyme): 0%

SMILES: NO [Hydroxylamine]
- influence of reaction inhibitor on the transaminase derived from Arthrobacter [4]: affected only a little
- Transaminase of Present Invention (Relative Activity: %) with inhibitor [4]: 17%
- ω-Amino Acid Transaminase (Relative Activity: %) with inhibitor [9]: 0%
- Transaminase of Okada et al. (Relative Activity: %) with inhibitor ([5]; inhibitor 0.1 mM): 30%

SMILES: NCCC(=O)O [β-Alanine]
- activity of the transferase to amino donor [10]: does not act
- Relative Activity (%) as amino donor ([10]; amino acceptor pyruvic acid, (R)-1-phenylethylamine control = 100): 0%
- ω-Amino Acid Transaminase (Relative Activity: %), Substrate Specificity [6]: 100%
- Transaminase of Okada et al. (Relative Activity: %), Substrate Specificity [7]: 0%
- action of the transaminase derived from Arthrobacter on the substrate [8]: does not act
- Transaminase of Present Invention (Relative Activity: %), Substrate Specificity ([8]; purified enzyme): 0%

SMILES: CC(N)C(C)(C)C (racemic) [(RS)-3-Amino-2,2-dimethylbutane]
- (R)-DMA Formed (%), inducer in culture medium [2]: 18.6%

SMILES: CCCCN [n-Butylamine]
- ω-Amino Acid Transaminase (Relative Activity: %), Substrate Specificity [6]: 60%
- Transaminase of Okada et al. (Relative Activity: %), Substrate Specificity [7]: 0%
- action of the transaminase derived from Arthrobacter on the substrate [8]: does not act
- Transaminase of Present Invention (Relative Activity: %), Substrate Specificity ([8]; purified enzyme): 0%

SMILES: NCc1ccccc1 [Benzylamine]
- ω-Amino Acid Transaminase (Relative Activity: %), Substrate Specificity [6]: 45%
- action of benzylamine transaminase on substrate ([7]; in the presence of pyruvic acid): strongly acts
- Transaminase of Okada et al. (Relative Activity: %), Substrate Specificity [7]: 100%
- Relative Activity (%) of amino compounds ([8]; purified enzyme, 40 mM amino compound in substrate solution, 40 mM pyruvic acid, pH 8.3, 30° C., 1 hour, (R)-1-phenylethylamine = 100): 0.8%
- Transaminase of Present Invention (Relative Activity: %), Substrate Specificity ([8]; purified enzyme): 0.8%

SMILES: N[C@@H](CC(=O)O)C(=O)O [aspartic acid]
- Amino Group Donor, Transaminase of Present Invention [11]: cannot be used as an amino donor

SMILES: CCC(C)N (racemic) [(RS)-1-Methylpropylamine]
- (R)-DMA Formed (%), inducer in culture medium [2]: 22.3%
- function as amino donor [3]: functioned as amino donors
- (R)-DMA Formed (%), amino group donor ([3]; 1% amino donor, 1% 1-(3,4-dimethoxyphenyl)-2-propanone, Triton X-100, pH 8.5, 35° C., 20 hours): 28.2%

SMILES: CCCC(C)N (racemic) [(RS)-1-Methylbutylamine]
- (R)-DMA Formed (%), inducer in culture medium [2]: 13.0%
- function as amino donor [3]: functioned as amino donors

SMILES: NNc1ccccc1 [Phenylhydrazine]
- influence of reaction inhibitor on the transaminase derived from Arthrobacter [4]: affected only a little
- Transaminase of Present Invention (Relative Activity: %) with inhibitor [4]: 82%
- ω-Amino Acid Transaminase (Relative Activity: %) with inhibitor [9]: 6%
- Transaminase of Okada et al. (Relative Activity: %) with inhibitor ([5]; inhibitor 1 mM): 27%

SMILES: Cl.N [ammonium chloride]
- Amino Group Donor, Transaminase of Present Invention [11]: cannot be used as an amino donor

SMILES: O=C(O)c1cc[c]([Hg][Cl])cc1 [p-Chloromercuribenzoic acid]
- Transaminase of Present Invention (Relative Activity: %) with inhibitor [4]: 53%
- ω-Amino Acid Transaminase (Relative Activity: %) with inhibitor [9]: 100%
- Transaminase of Okada et al. (Relative Activity: %) with inhibitor ([5]; inhibitor 0.1 mM): 9%

SMILES: N[C@@H](CCC(=O)O)C(=O)O [glutamic acid]
- Amino Group Donor, Transaminase of Present Invention [11]: cannot be used as an amino donor

SMILES: COc1ccc(C[C@@H](C)N)cc1OC [(R)-DMA, (R)-1-(3,4-dimethoxyphenyl)-2-aminopropane]
- (R)-DMA Formed (%), inducer in culture medium [2]: 0.9%

SMILES: CCC=O [propionaldehyde]
- ratio of the (S)-form of 2-amino-1-methoxypropane [1]: 58%

SMILES: NC1C=CC=C(C(=O)O)C1 (racemic) [Gabaculine]
- Transaminase of Present Invention (Relative Activity: %) with inhibitor [4]: 24%
- ω-Amino Acid Transaminase (Relative Activity: %) with inhibitor [9]: 0%

SMILES: NCCCCN [Putrescine]
- Relative Activity (%) as amino donor ([10]; amino acceptor 2-ketoglutaric acid, (R)-1-phenylethylamine/pyruvic acid control = 100): 0%
- ω-Amino Acid Transaminase (Relative Activity: %), Substrate Specificity [6]: 55%
- Transaminase of Okada et al. (Relative Activity: %), Substrate Specificity [7]: 0%
- action of the transaminase derived from Arthrobacter on the substrate [8]: does not act
- Transaminase of Present Invention (Relative Activity: %), Substrate Specificity ([8]; purified enzyme): 0%
